These results are taken from ChEMBL document CHEMBL1140761 (Bioorg Med Chem, 2008).

Some results are limits rather than exact numbers.

In test [1] the target is T1, A1 adenosine receptor (Sus scrofa, UniProt Q4VQ11).
T1 sequence (Q4VQ11 whole entry): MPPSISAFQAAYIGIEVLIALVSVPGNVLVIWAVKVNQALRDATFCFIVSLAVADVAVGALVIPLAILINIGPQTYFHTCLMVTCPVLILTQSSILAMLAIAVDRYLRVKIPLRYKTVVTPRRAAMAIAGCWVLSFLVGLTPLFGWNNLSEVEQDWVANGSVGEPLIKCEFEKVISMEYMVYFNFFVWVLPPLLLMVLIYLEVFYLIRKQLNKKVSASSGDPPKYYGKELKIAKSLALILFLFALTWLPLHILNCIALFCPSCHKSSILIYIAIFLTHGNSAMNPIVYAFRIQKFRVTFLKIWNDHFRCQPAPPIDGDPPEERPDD
The class given is cell membranes.

Test [2] deals with T1, A1 adenosine receptor. In words: Agonist activity at adenosine A1 receptor in pig cortical membrane assessed as stimulation of GTPgammaS binding. It is filed as functional, cell membranes. (Binding of GTPγS marks nucleotide exchange on a G protein.)
Test [3] deals with Adenosine receptors; A1 & A3 (Homo sapiens) (UniProt P30542+P0DMS8). In words: Selectivity for human adenosine A1 receptor over human adenosine A3 receptor.
Another test deals with Adenosine receptor A2a (Homo sapiens, UniProt P29274). The test can be described thus: Displacement of [3H]NECA from human recombinant adenosine A2A receptor expressed in CHO cells. The class given is cell-based.
Sequence of Adenosine receptor A2a (P29274 whole entry): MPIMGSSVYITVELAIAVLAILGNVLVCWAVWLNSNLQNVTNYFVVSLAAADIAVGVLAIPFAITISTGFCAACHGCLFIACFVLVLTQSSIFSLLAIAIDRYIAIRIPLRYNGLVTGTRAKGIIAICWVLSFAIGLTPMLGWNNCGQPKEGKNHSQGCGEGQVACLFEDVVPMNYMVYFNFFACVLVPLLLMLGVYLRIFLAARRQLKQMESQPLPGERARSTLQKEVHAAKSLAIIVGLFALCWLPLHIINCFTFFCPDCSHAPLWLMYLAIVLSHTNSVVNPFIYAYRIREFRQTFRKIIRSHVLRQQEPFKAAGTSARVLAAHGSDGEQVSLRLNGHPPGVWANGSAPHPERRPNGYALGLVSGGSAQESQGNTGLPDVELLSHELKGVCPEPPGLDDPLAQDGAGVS
The species entered for test [4] is Homo sapiens. The test can be described thus: Selectivity for human adenosine A3 receptor over human adenosine A2A receptor.
Test [5] concerns the target T2, A1 adenosine receptor (Sus scrofa) (UniProt Q4VQ11).
T2 sequence (whole entry): T1 sequence (Q4VQ11 whole entry)
In words: Agonist activity at adenosine A1 receptor in pig cortical membrane assessed as stimulation of GTPgammaS binding relative to CPA. The class given is functional, cell membranes.

Test [6] is filed under the species Homo sapiens. The test can be described thus: Selectivity for human adenosine A1 receptor over human adenosine A2A receptor.
In the next test the target is Uncharacterized protein (Bos taurus, UniProt E1BKU0). The test can be described thus: Displacement of [3H]CGS21680 from […] in bovine striatum membrane. The class given is cell membranes. For orientation: Loss of bound radioactivity is the signal in a displacement assay; it reports binding, not function.
Sequence of Uncharacterized protein (E1BKU0 whole entry): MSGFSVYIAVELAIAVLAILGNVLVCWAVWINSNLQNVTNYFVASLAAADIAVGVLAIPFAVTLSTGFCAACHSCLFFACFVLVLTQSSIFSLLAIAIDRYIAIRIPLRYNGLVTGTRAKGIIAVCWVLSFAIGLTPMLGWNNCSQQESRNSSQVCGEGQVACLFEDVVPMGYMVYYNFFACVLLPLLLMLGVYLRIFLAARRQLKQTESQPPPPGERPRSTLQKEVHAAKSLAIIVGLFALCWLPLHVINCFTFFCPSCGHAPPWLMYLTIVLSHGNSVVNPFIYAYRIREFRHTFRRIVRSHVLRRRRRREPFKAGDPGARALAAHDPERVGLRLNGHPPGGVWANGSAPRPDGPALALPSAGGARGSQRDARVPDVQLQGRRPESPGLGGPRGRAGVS
Test [7] concerns the target T3, Adenosine receptor A1 (Bos taurus, UniProt P28190).
T3 sequence (P28190 whole entry): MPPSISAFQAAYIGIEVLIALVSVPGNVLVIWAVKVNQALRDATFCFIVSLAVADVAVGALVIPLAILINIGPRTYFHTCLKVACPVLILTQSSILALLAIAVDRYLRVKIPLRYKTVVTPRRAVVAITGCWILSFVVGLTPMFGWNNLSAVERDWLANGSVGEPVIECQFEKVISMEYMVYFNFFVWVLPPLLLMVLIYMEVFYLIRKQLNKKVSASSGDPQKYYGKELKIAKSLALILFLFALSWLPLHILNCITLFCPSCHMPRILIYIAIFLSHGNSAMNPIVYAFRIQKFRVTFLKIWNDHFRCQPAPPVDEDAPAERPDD
It is filed as cell membranes. To be noted: read-out: Ki.

In test [8] the target is T4, Adenosine receptor A1 (Homo sapiens, UniProt P30542).
T4 sequence (P30542 whole entry): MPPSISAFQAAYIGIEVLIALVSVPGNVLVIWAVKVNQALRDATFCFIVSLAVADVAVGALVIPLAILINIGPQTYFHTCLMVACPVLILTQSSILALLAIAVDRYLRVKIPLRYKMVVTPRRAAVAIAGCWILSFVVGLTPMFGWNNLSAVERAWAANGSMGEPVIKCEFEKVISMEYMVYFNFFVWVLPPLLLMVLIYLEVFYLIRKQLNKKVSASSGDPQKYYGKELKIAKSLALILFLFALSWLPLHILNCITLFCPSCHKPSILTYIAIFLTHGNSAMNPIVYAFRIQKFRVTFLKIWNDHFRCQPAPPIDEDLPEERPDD
In words: Displacement of [3H]CCPA from human recombinant adenosine A1 receptor expressed in CHO cells. It is filed as cell-based.

Another test has as its target T5, Adenosine receptor A3 (Homo sapiens, UniProt P0DMS8).
T5 sequence (P0DMS8 whole entry): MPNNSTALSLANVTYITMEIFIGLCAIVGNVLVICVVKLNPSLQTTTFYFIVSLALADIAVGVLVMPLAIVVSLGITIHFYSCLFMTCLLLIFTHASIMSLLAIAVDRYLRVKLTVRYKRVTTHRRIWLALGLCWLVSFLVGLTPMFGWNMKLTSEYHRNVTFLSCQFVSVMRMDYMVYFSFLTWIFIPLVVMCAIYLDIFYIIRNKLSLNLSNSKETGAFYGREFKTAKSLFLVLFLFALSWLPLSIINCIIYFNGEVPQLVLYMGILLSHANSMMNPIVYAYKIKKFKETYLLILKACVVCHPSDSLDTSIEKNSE
The test can be described thus: Displacement of [3H]NECA from human recombinant adenosine A3 receptor expressed in CHO cells. The class given is cell-based.

In a further test the target is Adenosine receptor A2 (Sus scrofa, UniProt K9IW67). The test can be described thus: Displacement of [3H]CGS21680 from […] in pig striatum membrane. It is filed as cell membranes.

In the case of `OC[C@H]1O[C@@H](n2cnc3c(N[C@@H]4CCOC4)nc(Cl)nc32)[C@H](O)[C@@H]1O`, the inhibitory constant (Ki) on A1 adenosine receptor [1] came out at 6.6 nM; on Adenosine receptor A2a, 4590 nM; at Uncharacterized protein it was 4690 nM; at Adenosine receptor A1 [7], 1.7 nM; on Adenosine receptor A1 [8], 1.87 nM; on Adenosine receptor A3, 34600 nM. Further, at A1 adenosine receptor [2], the EC50 turned out to be 18.3 nM. For the same molecule, the Ratio Ki came to 113 in [3], 21.7 in the test filed under Homo sapiens [4] and 2460 in the test listed under Homo sapiens [6]. In test [5], the Efficacy was found to be 97%.
For `C[C@@]1(O)[C@H](O)[C@@H](CO)O[C@H]1n1cnc2c(N[C@@H]3CCOC3)ncnc21`, the Ki on A1 adenosine receptor [1] is 150 nM; on Adenosine receptor A2a it was greater than 100000 nM; on Adenosine receptor A1 [7], 13.6 nM; at Adenosine receptor A1 [8], 21 nM; on Adenosine receptor A3 it was 35500 nM. Further, the EC50 on A1 adenosine receptor [2] is 3620 nM. The Ratio Ki in test [3] is 211; in the test listed under Homo sapiens [4] it was greater than 22.5; in the test listed under Homo sapiens [6], greater than 4760. Also, in test [5], the Efficacy stood at 95%.
As to `CNC(=S)OC[C@H]1O[C@@H](n2cnc3c(NC4CCCC4)nc(Cl)nc32)[C@](C)(O)[C@@H]1O`, the Ki at A1 adenosine receptor [1] amounted to 13 nM; at Adenosine receptor A2a it was 8760 nM; at Uncharacterized protein it was 15000 nM; at Adenosine receptor A2, 9200 nM; at Adenosine receptor A1 [7] it was 66 nM; on Adenosine receptor A1 [8], 356 nM. On Adenosine receptor A3, the Ki is greater than 100000 nM. In addition, the half-maximal effective concentration (EC50) on A1 adenosine receptor [2] was 326 nM. The Ratio Ki in [3] amounted to 7.9; in the test listed under Homo sapiens [4], 3.1; in the test filed under Homo sapiens [6], 24.6. Besides, in [5], the Efficacy was found to be 64%.
For `C[C@@]1(O)[C@H](O)[C@@H](CO)O[C@H]1n1cnc2c(N[C@@H]3CCOC3)nc(Cl)nc21`, the Ki at A1 adenosine receptor [1] is 67 nM; on Adenosine receptor A2a, greater than 100000 nM; at Adenosine receptor A1 [7], 13 nM; at Adenosine receptor A1 [8], 15.5 nM; on Adenosine receptor A3, 18900 nM. On A1 adenosine receptor [2], the EC50 worked out at 2760 nM. For the same molecule, the results for the Ratio Ki (in [3]; in the test filed under Homo sapiens [4]; in the test filed under Homo sapiens [6]) were 288, greater than 22.4 and greater than 6450, respectively. Moreover, in test [5], the Efficacy was 96%.

Usually Ki stands for the equilibrium dissociation constant of an inhibitor or competing ligand from its target. One may read the EC50 as the concentration that produces a half-maximal response.
